Publication PMC2891302 (Bioconjugate chemistry, 2009)

How the values were obtained:
[1] = target: T1, hA3 AR (Homo sapiens, UniProt P0DMS8); assay: Radioligand binding at hA3 AR
T1 sequence (P0DMS8 1-318): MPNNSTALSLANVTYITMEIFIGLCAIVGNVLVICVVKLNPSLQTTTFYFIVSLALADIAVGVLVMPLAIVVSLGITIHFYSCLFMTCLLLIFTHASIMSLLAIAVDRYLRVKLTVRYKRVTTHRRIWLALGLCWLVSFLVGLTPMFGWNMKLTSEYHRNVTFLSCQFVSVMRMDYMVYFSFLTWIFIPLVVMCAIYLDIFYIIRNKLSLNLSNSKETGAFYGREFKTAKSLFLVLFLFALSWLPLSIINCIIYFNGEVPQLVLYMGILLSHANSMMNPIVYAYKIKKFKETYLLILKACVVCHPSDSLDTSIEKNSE

[2] = target: T2, hA1 AR (Homo sapiens, UniProt P30542); assay: Radioligand binding at hA1 AR
T2 sequence (P30542 1-326): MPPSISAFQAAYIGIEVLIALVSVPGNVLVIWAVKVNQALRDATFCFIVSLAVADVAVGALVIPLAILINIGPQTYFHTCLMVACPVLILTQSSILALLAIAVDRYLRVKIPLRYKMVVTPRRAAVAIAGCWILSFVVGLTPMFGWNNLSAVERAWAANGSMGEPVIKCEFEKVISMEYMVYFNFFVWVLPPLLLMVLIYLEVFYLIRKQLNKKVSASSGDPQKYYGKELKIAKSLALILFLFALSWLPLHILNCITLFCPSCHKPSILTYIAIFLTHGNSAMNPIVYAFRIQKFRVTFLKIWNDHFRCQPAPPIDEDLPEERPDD

[3] = tested on: human washed platelets; assay: Inhibition of ADP-induced aggregation of human washed platelets; type: cell-based; settings: Platelet, read-out: IC50, inhibition of platelet aggregation
[4] = target: T3, hA2B AR (Homo sapiens, UniProt P29275); assay: Cyclic AMP accumulation assay, CHO cells expressing hA2B AR; type: cell-based; settings: at 10 μM, in comparison to full agonist NECA (100%)
T3 sequence (P29275 1-332): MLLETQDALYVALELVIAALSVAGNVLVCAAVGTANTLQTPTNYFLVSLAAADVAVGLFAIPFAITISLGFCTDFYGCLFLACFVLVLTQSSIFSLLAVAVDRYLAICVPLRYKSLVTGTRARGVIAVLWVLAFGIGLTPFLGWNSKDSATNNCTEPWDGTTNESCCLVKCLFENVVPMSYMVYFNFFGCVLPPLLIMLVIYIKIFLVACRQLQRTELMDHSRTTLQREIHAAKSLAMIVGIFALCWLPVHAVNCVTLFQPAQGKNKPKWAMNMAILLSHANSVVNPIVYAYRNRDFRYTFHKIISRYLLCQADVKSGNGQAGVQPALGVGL

[5] = inhibition of radioligand binding at 1 μM

inhibition at 1 µM ([1]; read-out: hA3 % inhibition) | inhibition at 1 µM ([2]; read-out: hA1 % inhibition) | IC50 [3] | Compound | hA3 % inhibition [1, 5] | hA1 % inhibition [2, 5] | hA2B % activation of adenylate cyclase [4]
59.8 ± 4.4% | 24.9 ± 4.6% | 192 ± 90 nM | CCNC(=O)[C@H]1O[C@@H](n2cnc3c(N)nc(NCCc4ccc(CCC(=O)O)cc4)nc32)[C@H](O)[C@@H]1O [compound 1, 2-[4-(2-carboxylethyl)phenylethylamino]-5′-N-ethylcarboxamidoadenosine, reference compound] |  |  | 
 |  |  | CCNC(=O)[C@H]1O[C@@H](n2cnc3c(N)nc(NCCc4ccc(CCC(=O)NCCN)cc4)nc32)[C@H](O)[C@@H]1O [compound 2, 2-[4-(2-Aminoethylaminocarbonylethyl)phenylethylamino]-5′-N-ethylcarboxamidoadenosine, reference compound] | 85.3 ± 3.2% | 56.9 ± 9.1% | 5.5 ± 4.7%
